As a reminder, the IC50 is the point on the concentration scale where inhibition reaches its midpoint.

Consider four compounds from patent US20060035901A1, “Methotrexate derivatives useful for treating cancer and arthritis” (Serenex, Inc., priority 2004, published 2006).

The target in one experiment is B-Raf (Homo sapiens, UniProt P15056). Nature of the experiment: Elution of B-Raf from ATP-Sepharose column by compound (Proteome Mining), IC50 estimate. Format: binding. As to conditions: estimated from percent of protein eluted from ATP-Sepharose column, gel densitometry; read-out: Approximate IC50 for B-Raf. The protocol: A proteome containing a known quantity of Her2, EGFR, and B-Raf was run over an ATP-Sepharose™ column in order to bind all purine-binding proteins. See, WO 00/63694 and U.S. Provisional Application No. 60/453,697 filed Jan. 22, 2003, each of which is incorporated by reference in its entirety. The ATP-Sepharose™ was washed several times, and then eluted with the compound of Formula III. The experiment was run in duplicate at concentrations of 20 μM, 100 μM, and 500 μM of the compound of Formula III. The eluted fractions were run on a 1-dimensional SDS polyacrylamide gel. Gels were stained with a fluorescent stain such as sypro ruby (a highly sensitive fluorescent protein stain that can readily detect less than 1 fmol of total protein, i.e., less than 0.04 ng for a 40 kDa protein). The gels were imaged using a standard flat bed gel imager and the amount of protein estimated by densiometry. The percent of protein eluted from the column at each concentration was determined and IC50 values were calculated from these estimates. Where necessary, the eluted proteins were cut out of the gel, and identified using mass spectral techniques.
B-Raf, sequence (P15056 whole entry, species assumed): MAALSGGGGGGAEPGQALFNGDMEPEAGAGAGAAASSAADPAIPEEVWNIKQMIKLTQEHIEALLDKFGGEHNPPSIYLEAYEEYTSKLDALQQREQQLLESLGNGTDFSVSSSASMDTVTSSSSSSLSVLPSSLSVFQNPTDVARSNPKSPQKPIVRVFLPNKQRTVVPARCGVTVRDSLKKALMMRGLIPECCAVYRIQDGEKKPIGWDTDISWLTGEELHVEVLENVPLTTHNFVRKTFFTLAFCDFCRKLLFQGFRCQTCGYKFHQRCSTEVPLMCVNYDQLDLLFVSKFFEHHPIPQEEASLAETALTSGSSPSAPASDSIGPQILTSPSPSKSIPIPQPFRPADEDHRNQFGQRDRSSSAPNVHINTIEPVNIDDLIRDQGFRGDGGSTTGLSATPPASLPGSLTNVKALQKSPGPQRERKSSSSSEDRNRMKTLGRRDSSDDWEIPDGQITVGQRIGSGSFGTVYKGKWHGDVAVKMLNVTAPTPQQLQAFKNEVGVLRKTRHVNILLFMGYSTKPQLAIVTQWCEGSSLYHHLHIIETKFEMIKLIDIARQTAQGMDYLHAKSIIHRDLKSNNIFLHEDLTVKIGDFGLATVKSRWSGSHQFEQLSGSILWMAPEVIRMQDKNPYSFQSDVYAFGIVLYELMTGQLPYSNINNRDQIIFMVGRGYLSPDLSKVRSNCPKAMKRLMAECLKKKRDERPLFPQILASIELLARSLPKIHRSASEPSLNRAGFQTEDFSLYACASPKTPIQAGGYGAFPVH
These steps were repeated with each of the compounds of Formulas IV-X, MTX, and the c series derivative.

The target in experiment [1] is T1, propionyl-CoA carboxylase subunit alpha (PCCA) (Sus scrofa, UniProt P0DTA4).
T1 construct: a porcine liver proteome was run over an ATP-Sepharose™ column; from tissue; host or cells: porcine liver
T1 sequence (P0DTA4 53-730): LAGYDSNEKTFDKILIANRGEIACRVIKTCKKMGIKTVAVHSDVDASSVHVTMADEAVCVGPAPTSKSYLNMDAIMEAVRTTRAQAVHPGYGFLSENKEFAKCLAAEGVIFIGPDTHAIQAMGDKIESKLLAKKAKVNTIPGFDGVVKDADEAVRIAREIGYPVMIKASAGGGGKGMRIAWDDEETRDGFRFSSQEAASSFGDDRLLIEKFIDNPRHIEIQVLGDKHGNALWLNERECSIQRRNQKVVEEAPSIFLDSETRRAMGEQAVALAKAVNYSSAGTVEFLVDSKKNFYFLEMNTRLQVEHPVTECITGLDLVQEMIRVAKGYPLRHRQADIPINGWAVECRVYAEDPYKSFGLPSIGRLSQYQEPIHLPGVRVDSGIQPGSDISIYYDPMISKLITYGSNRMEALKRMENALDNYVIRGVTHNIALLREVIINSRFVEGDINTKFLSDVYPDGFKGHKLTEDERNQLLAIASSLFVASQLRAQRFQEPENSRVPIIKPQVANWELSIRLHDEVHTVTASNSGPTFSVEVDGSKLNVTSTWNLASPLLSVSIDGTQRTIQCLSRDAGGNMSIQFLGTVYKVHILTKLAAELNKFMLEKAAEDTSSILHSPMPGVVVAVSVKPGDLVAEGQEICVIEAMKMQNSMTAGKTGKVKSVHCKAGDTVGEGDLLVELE
T1 sequence (P79384 29-539 partner): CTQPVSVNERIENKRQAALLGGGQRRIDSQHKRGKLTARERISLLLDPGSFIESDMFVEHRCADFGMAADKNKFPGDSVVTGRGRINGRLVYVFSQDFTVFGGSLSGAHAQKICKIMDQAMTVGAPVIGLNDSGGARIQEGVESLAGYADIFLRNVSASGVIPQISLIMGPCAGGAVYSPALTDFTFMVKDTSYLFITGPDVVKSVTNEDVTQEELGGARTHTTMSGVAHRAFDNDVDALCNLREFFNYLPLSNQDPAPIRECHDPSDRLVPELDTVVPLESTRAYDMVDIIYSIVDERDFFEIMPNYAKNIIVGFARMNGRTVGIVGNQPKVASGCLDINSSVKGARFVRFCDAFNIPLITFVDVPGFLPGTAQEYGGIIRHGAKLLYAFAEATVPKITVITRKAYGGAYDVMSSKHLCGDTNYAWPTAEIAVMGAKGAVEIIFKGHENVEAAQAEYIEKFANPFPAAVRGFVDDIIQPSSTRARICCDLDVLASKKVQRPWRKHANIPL
Nature of the experiment: Elution of PCCA from ATP-Sepharose column loaded with porcine liver proteome, IC50 estimate. Format: binding. The conditions noted are these: estimated from percent of protein eluted from ATP-Sepharose column, read-out: Approximate IC50 for PCCA. The protocol:
Similar experiments were carried out to compare the IC50 values for PYC, PCCA, and PCCB. In these trials, a porcine liver proteome was run over an ATP-Sepharose™ column to bind all purine-binding proteins. The ATP-Sepharose™ column was washed several times, and then eluted with the compound of Formula III at concentrations of 1 μM, 5 μM, 10 μM, 50 μM, 100 μM, and 500 μM to identify proteins that bound to this compound.
Gels were stained with a fluorescent stain such as sypro ruby (a highly sensitive fluorescent protein stain that can readily detect less than 1 fmol of total protein, i.e., less than 0.04 ng for a 40 kDa protein). The gels were imaged using a standard flat bed gel imager and the amount of protein estimated by densiometry. The percent of protein eluted from the column at each concentration was determined and IC50 values were calculated from these estimates. Where necessary, the eluted proteins were cut out of the gel, and identified using mass spectral techniques.
The values obtained were then compared to those for DHFR.

The test system of experiment [2] is MCF-7 (mammary; adenocarcinoma). Put plainly: Cell proliferation assay (WST-1), MCF-7. The conditions noted are these: MCF-7 cells. It is filed as cell-based. The protocol:
(§1) A panel of cancer cell lines was obtained from the DCTP Tumor Repository, National Cancer Institute (Fredrick, Md.) or ATCC (Rockville, Md.). Cell cultures were maintained in Hyclone RPMI 1640 medium (Logan, Utah) supplemented with 10% fetal bovine serum and 20 mM HEPES buffer, pH 7.2, at 37° C., 5% CO2 atmosphere. Cultures were maintained at sub-confluent densities.
(§2) For proliferation assays, cells were seeded with the appropriate medium into 96 well plates at 1,000-2,000 cells per well, depending on cell line, and were incubated overnight. The following day, an amount of test compound, DMSO solution (negative control), or Actinomycin D (positive control) was added to the appropriate wells as 10× concentrated stocks prepared in phosphate buffered saline. The cell plates were then incubated for an additional 2-5 days, dependent on cell line, to allow for proliferation to occur. […] Optical density was determined for each well a 450 nm using a Tecan GniosPro plate reader (RTP, NC). The percentage of cell growth was then determined by comparing the cell growth in the presence of test compounds to the DMSO vehicle control treated cells (100% growth) and […] Actinomycin D treated cells (0% growth).
A general note: Tetrazolium assays rely on reduction of a dye to a coloured formazan, in cell work by metabolically active cells.

The subject of experiment [3] is NCI/ADR Res (breast; adenocarcinoma). Put plainly: Cell proliferation assay (WST-1), NCI/ADR Res. Format: cell-based. The conditions noted are these: NCI/ADR Res cells. The protocol: as §1, §2
Experiment [4] concerns DMS-114 (N/A; small cell). Nature of the experiment: Cell proliferation assay (WST-1), DMS-114. It is filed as cell-based. The conditions noted are these: DMS-114 cells. The protocol:
as §1, §2

For another experiment, the system named is PC-3 (N/A; carcinoma). Nature of the experiment: Cell proliferation assay (WST-1), PC-3. It is filed as cell-based. As to conditions: PC-3 cells. The protocol: as §1, §2

Molecules are shown by their SMILES.

Consider `C#CCN(Cc1cnc2nc(N)nc(N)c2n1)c1ccc(C(=O)NC(CCC(=O)O)C(=O)O)cc1OC` (stereo not shown) [Formula VIII], for which the IC50 at B-Raf is 5 µM; in experiment [1], 2 µM.
In the case of `Cc1cc(C(=O)NC(CCC(=O)O)C(=O)O)ccc1N(Cc1ccoc1)Cc1cnc2nc(N)nc(N)c2n1` (stereo not shown) [Formula VII], the IC50 in experiment [1] is 2 µM.
In the case of `C#CCN(Cc1cnc2nc(N)nc(N)c2n1)c1ccc(C(=O)NC(CCC(=O)O)C(=O)O)cc1C` (stereo not shown) [Formula III, 2-{4-[(2,4-diamino-pteridin-6-ylmethyl)-prop-2-ynyl-amino]-3-methyl-benzoylamino}-pentanedioic acid], the IC50 at B-Raf was 5 µM; in experiment [1] it was 2 µM. Also, the “Fold Improvement in Cell Proliferation IC50 Compared to MTX” value in experiment [2] is given as above 1 fold; in experiment [3], above 1 fold; in experiment [4], above 4 fold; in the experiment on PC-3 (N/A; carcinoma) it was above 1 fold.
With `C#CCN(Cc1cnc2nc(N)nc(N)c2n1)c1ccc(C(=O)NC(CCC(=O)O)C(=O)O)cc1OC(F)(F)F` (stereo not shown) [Formula IX], in experiment [1], the IC50 was 10 µM.
